{
  "source": "patent US8193326B2",
  "about": "“Nucleic acids encoding novel TERT polypeptides” (GemVax AS, priority 2000, dated 2012)",
  "tested_on": "T cells from human peripheral blood mononuclear cells (PBMC)",
  "test": "Induction and proliferation of human T cell response to peptide (3H-thymidine proliferation assay)",
  "type": "cell-based",
  "settings": "PBMC from four healthy donors primed with peptide-pulsed dendritic cells, re-stimulated with peptide-pulsed autologous PBMC, mean cpm of triplicates",
  "from_the_text": "In this experiment, peripheral blood mononuclear cells (PBMC) from four healthy humans (donors “14328”, “14313”, “23244” and “23255”) and were isolated and primed for seven days with dendritic cells pulsed with the SEQ ID NO: 11 peptide derived from the hTERT σ-insert polypeptide, followed by two cycles consisting of seven days re-stimulation with peptide-pulsed autologous PBMC. The dendritic cells were derived from monocytes from peripheral blood. T cells from the resulting bulk: culture were tested in triplicate with or without peptide-pulsed antigen presenting cells (APC) before harvesting after 3 days. To measure the proliferative capacity of the cultures, ^3H-thymidine (3.7×10^4 Bq/well) was added to the culture overnight before harvesting. Cultures with non-pulsed APC or without APC served as controls. Further details of the protocol used are set out below.\nT cell clones were obtained from the resulting bulk cultures from non-vaccinated donors 14313 and 23255. […]\nPBMCs were separated out from 50 ml of blood (from buffy coat). The cells were counted and re-suspended in complete RPMI-1640/15% pool serum. […]\nBulk cultures were harvested and stimulated with irradiated PBMCs and peptide. If there was high cell death, cultures were lymphoprep separated, otherwise they were counted and resuspended in RPMI/15% pool serum. […]",
  "data": [
    {"substance": "SEQ ID NO: 11: peptide derived from the hTERT σ-insert polypeptide (RVAVLWFNFLFKQKPSVSPRG; listed as Homo sapiens)", "values": [
      {"measurement": "proliferative T cell response / peptide-specific T cells (bulk cultures and T cell clones, FIGS. 7-9)", "result": "T cells can be expanded in vitro following stimulation with the relevant peptide"}
    ]}
  ]
}
